From US20130039952A1, “CALCIPOTRIOL MONOHYDRATE NANOCRYSTALS” (LEO PHARMA A/S, priority 2009, published 2013)
Values belong to the molecule of their own block, whether it stands above or below them.

How the values were obtained:
[1] = DSC analysis of the amount of amorphous calcipotriol; type: physicochemical; settings: two batches, DSC at 100, 300 and 500° C./min under N2
Description: The amount of amorphous calcipotriol generated in this method was determined on two batches of calcipotriol nanocrystals prepared by the method using DSC analysis at a heating rate of 100° C., 300° C. and 500° C./min. under a N2 atmosphere. The instrument used for the analysis was a Perkin Elmer DSC 8500.

[2] = Particle size by dynamic light scattering; type: physicochemical; settings: Zetasizer Nano ZS90, after high pressure homogenization
Text: The term “particle size distribution” is intended to mean the span between the smallest and largest calcipotriol monohydrate crystal as determined by dynamic light scattering (also known as photon correlation spectroscopy) using a Zetasizer Nano ZS or ZS90 according to the manufacturer's instructions (available from Malvern Instruments, UK). Dynamic light scattering determines the size of solid particles suspended in a liquid by illuminating the particles with a laser and analysing the intensity fluctuations in the scattered light resulting from the Brownian motions of the particles in the liquid. Intensity fluctuations are correlated to particle size in that larger particles move more slowly than smaller particles, i.e. the intensity fluctuation is slower.

IL-1α = experiment: Release of IL-1α with glycerol in a calcipotriol ointment; settings: 5%, 10% and 15% by weight of glycerol in a calcipotriol ointment
[3] = test system: gene encoding cathelicidin; experiment: Cathelicidin gene activation in reconstructed human epidermis, ointments; type: cell-based; settings: 5% vs 10% or 15% by weight of glycerol in the composition
Text: In psoriasis, the level of cathelicidin is increased in lesional skin of psoriasis patients. […] This finding has been utilized to develop an assay in which the uptake and biological activity of calcipotriol in human keratinocytes from the tested compositions has been determined by measuring the level of induction of the gene encoding cathelicidin.
Compositions A, C and D prepared as described in Example 2 above were applied topically in triplicate on reconstructed human epidermis consisting of normal human keratinocytes cultured for 12 days on 0.5 cm^2 polycarbonate filters (available from SkinEthic® Laboratories, Nice, France) in an amount of 10 μl. The tissue was treated for two days followed by separation of the epidermis from the polycarbonate filter and snap-frozen in liquid nitrogen. RNA was extracted from the cells and cDNA synthesized by conventional procedures. qPCR was then performed using the following assays from Applied Biosystems: CAMP Hs0018038_ml and GAPDH Hs99999905_ml. The expression levels of cathelicidin were normalized to GAPDH and a relative quantification was made by comparison with Daivonex® ointment.

[4] = M. Hannuksela et al., Contact Dermatitis 1, 1975; cited from earlier work

mean particle size [2]: 350-400 nm | particle size distribution [2]: 200-600 nm
Compound: C=C1/C(=C\C=C2/CCC[C@]3(C)[C@@H]([C@H](C)/C=C/[C@@H](O)C4CC4)CC[C@@H]23)C[C@@H](O)C[C@@H]1O [calcipotriol monohydrate nanocrystals, Calcipotriol monohydrate]
amount of amorphous calcipotriol [1]: only insignificant amounts of amorphous calcipotriol

Compound: OCC(O)CO [glycerol]
release of IL-1α (IL-1α): reduce the release of IL-1α in a dose-dependent manner | expression of cathelicidin / biological activity of calcipotriol [3]: potentiating the biological activity of calcipotriol

Compound: CC(O)CO (stereo not drawn) [propylene glycol]
number of irritant reactions [4]: 12.5%
